Measured values: US20250059188A1, “ARYLSULPHONAMIDE COMPOUNDS” (Anaxis Pharma Pty Ltd, priority 2021, published 2025)

Tests used:
[1] = target: human MLKL (full length) (Homo sapiens (Human), UniProt Q8NB16); test: KINOMEscan binding assay, human MLKL (full length); conditions: equilibrium dissociation constant
Procedure, shortened: (§1)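 Binding constants were derived by fitting qPCR-quantified bead-retained kinase against compound concentration to the Hill equation, slope set at −1. Compound series were 3-fold over 11 points with 1% DMSO; most top concentrations were 30,000 nM. Kinases were T7-phage-tagged or HEK-293-produced with DNA tags.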

[2] = tested on: U937 human histiocytic leukemia cell line; test: Inhibition of TSQ induced necroptosis in U937 cells (CellTitre-Glo); conditions: Homo sapiens, U-937, TSQ cocktail (TNF, Smac mimetic, Q-VD-OPh), 48 hours, read-out: Inhibition of TSQ-induced necroptosis (IC50 cell-based assay)
Procedure, shortened: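 U937 cells (20000/well) treated with compound (10-point, 1:3 from 36 μM, 0.3% DMSO) plus TSQ cocktail (hTNF-Fc 100 ng/ml, Smac mimetic 500 nM, Q-VD-OPh 10 μM), 48 h at 37 °C. Viability by CellTiter-Glo luminescence; IC50 from 4-parameter logistic fit. Counter screen: same cells without TSQ.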

[3] = target: human RIPK1 (Homo sapiens (Human), UniProt Q13546); test: KINOMEscan binding assay, human RIPK1; conditions: equilibrium dissociation constant
human RIPK1, sequence (Q13546 whole entry): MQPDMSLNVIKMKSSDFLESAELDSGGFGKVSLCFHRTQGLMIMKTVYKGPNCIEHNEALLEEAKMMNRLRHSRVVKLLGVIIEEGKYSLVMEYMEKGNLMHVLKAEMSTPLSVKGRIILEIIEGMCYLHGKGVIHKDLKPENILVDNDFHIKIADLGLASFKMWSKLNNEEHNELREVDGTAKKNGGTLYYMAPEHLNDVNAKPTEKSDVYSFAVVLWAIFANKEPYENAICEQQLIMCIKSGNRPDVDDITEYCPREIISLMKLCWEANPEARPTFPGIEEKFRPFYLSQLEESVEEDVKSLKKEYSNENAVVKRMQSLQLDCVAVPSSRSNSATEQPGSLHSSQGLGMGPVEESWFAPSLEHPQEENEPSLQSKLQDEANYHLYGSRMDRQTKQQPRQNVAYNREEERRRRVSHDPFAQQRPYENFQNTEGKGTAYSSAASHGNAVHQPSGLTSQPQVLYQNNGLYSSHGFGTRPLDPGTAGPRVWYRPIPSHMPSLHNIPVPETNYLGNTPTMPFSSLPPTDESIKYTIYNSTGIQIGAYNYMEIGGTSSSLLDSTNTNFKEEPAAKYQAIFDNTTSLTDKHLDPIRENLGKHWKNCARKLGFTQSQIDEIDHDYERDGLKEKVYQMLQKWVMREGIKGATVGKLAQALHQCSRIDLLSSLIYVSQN
Procedure, shortened: as §1

[4] = target: human RIPK3 (Homo sapiens (Human), UniProt Q9Y572); test: KINOMEscan binding assay, human RIPK3; conditions: equilibrium dissociation constant
human RIPK3, sequence (Q9Y572 whole entry): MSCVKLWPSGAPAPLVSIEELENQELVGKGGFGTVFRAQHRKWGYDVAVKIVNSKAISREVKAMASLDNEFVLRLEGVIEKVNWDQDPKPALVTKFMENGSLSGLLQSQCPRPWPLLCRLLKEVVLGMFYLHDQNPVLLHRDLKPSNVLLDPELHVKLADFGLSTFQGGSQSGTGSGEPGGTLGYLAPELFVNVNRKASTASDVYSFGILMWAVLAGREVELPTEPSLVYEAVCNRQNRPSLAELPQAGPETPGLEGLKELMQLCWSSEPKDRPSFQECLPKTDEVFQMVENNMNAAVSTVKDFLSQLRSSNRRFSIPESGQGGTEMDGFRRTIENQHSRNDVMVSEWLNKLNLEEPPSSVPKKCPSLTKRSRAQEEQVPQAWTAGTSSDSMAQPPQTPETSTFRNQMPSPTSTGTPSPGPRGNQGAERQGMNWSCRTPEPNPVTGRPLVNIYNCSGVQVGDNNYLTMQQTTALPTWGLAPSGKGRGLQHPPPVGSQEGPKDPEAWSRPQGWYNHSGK
Procedure, shortened: as §1

[5] = tested on: U937 cells; test: Counter screen: U937 cell viability without TSQ cocktail (off-target effect); design: species or system human; conditions: Homo sapiens, U-937, compound without TSQ cocktail, read-out: Off-target effect (IC50 cell-based assay)
Procedure, shortened: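 U937 cells (20,000/well) exposed to compound (10-point 1:3 titration from 36 μM, 0.3% DMSO) without TSQ cocktail for 48 h at 37 °C/5% CO2. Viability read as ATP by CellTiter-Glo luminescence; IC50 from 4-parameter logistic fit.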

human MLKL (full length), sequence (Q8NB16 whole entry): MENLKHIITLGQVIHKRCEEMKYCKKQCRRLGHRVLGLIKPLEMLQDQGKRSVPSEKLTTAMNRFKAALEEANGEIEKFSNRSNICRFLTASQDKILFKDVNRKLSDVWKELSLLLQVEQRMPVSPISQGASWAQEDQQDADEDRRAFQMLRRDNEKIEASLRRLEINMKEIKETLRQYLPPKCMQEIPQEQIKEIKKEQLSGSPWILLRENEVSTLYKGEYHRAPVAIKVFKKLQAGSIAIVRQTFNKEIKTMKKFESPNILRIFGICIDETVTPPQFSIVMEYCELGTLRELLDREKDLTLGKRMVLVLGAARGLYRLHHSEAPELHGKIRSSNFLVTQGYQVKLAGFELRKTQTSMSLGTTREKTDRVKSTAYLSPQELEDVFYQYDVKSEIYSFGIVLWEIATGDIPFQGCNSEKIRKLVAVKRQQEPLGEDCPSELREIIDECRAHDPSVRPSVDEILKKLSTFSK

| SMILES | Kd [1] [µM] | Kd [3] [µM] | Kd [4] [µM] | IC50 [2] [µM] | IC50 [5] [µM] |
| --- | --- | --- | --- | --- | --- |
| CC#Cc1cnc(N)c2c(-c3ccc(NS(=O)(=O)C(F)F)c(O[C@@H](C)c4ccc(F)cc4)c3)nn(C)c12 [Compound 56, (S)-N-(4-(4-amino-1-methyl-7-(prop-1-yn-1-yl)-1H-pyrazolo[4,3-c]pyridin-3-yl)-2-(1-(4-fluorophenyl)ethoxy)phenyl)-1,1-difluoromethanesulfonamide] | < 0.001 | > 10 | > 10 | 0.01 to 1 | > 10 |
| C[C@H](Oc1cc(-c2nn(C)c3c(-c4ccnc(C(F)F)c4)cnc(N)c23)ccc1NS(=O)(=O)C(F)F)c1ccc(F)cc1 [Compound 57, (S)-N-(4-(4-amino-7-(2-(difluoromethyl)pyridin-4-yl)-1-methyl-1H-pyrazolo[4,3-c]pyridin-3-yl)-2-(1-(4-fluorophenyl)ethoxy)phenyl)-1,1-difluoromethanesulfonamide] | 0.001 to 0.1 | > 10 | > 10 | 0.01 to 1 | > 10 |
| C[C@H](Oc1cc(-c2nn(C)c3c(-c4cnn(C5CCNCC5)c4)cnc(N)c23)ccc1NS(=O)(=O)C(F)F)c1ccc(F)cc1 [Compound 59, (S)-N-(4-(4-amino-1-methyl-7-(1-(piperidin-4-yl)-1H-pyrazol-4-yl)-1H-pyrazolo[4,3-c]pyridin-3-yl)-2-(1-(4-fluorophenyl)ethoxy)phenyl)-1,1-difluoromethanesulfonamide] | < 0.001 | > 10 | > 10 | 0.01 to 1 | > 10 |
| C[C@H](Oc1cc(-c2nn(C)c3c(-c4cnn(C5CC6CCC(C5)N6C)c4)cnc(N)c23)ccc1NS(=O)(=O)C(F)F)c1ccc(F)cc1 (stereo partly drawn) [Compound 73, N-(4-(4-amino-1-methyl-7-(1-(8-methyl-8-azabicyclo[3.2.1]octan-3-yl)-1H-pyrazol-4-yl)-1H-pyrazolo[4,3-c]pyridin-3-yl)-2-((S)-1-(4-fluorophenyl)ethoxy)phenyl)-1,1-difluoromethanesulfonamide] | < 0.001 | > 10 | > 10 | 0.01 to 1 | > 10 |
| C[C@H](Oc1cc(-c2nn(C)c3c(-c4cnn(C5CCCNCC5)c4)cnc(N)c23)ccc1NS(=O)(=O)C(F)F)c1ccc(F)cc1 (stereo partly drawn) [Compound 74, N-(4-(4-amino-7-(1-(azepan-4-yl)-1H-pyrazol-4-yl)-1-methyl-1H-pyrazolo[4,3-c]pyridin-3-yl)-2-((S)-1-(4-fluorophenyl)ethoxy)phenyl)-1,1-difluoromethanesulfonamide] | < 0.001 | > 10 | > 10 | 0.01 to 1 | > 10 |
| C[C@H](Oc1cc(-c2nn(C)c3c(-c4cnn(CCN5CC(C)(C)C5)c4)cnc(N)c23)ccc1NS(=O)(=O)C(F)F)c1ccc(F)cc1 [Compound 75, (S)-N-(4-(4-amino-7-(1-(2-(3,3-dimethylazetidin-1-yl)ethyl)-1H-pyrazol-4-yl)-1-methyl-1H-pyrazolo[4,3-c]pyridin-3-yl)-2-(1-(4-fluorophenyl)ethoxy)phenyl)-1,1-difluoromethanesulfonamide] | < 0.001 | > 10 | > 10 | < 0.01 | > 10 |
| C[C@H](Oc1cc(-c2nn(C)c3c(-c4cc(C#N)n(C)c4)cnc(N)c23)ccc1NS(=O)(=O)C(F)F)c1ccc(F)cc1 [Compound 83, (S)-N-(4-(4-amino-7-(5-cyano-1-methyl-1H-pyrrol-3-yl)-1-methyl-1H-pyrazolo[4,3-c]pyridin-3-yl)-2-(1-(4-fluorophenyl)ethoxy)phenyl)-1,1-difluoromethanesulfonamide] | 0.001 to 0.1 | > 10 | > 10 | 0.01 to 1 | > 10 |
| C[C@H](Oc1cc(-c2nn(C)c3c(-c4cccc(Cl)c4)cnc(N)c23)ccc1NS(=O)(=O)C(F)F)c1ccc(F)cc1 [Compound 84, (S)-N-(4-(4-amino-7-(3-chlorophenyl)-1-methyl-1H-pyrazolo[4,3-c]pyridin-3-yl)-2-(1-(4-fluorophenyl)ethoxy)phenyl)-1,1-difluoromethanesulfonamide] | 0.001 to 0.1 | > 10 | > 10 | 1 to 10 | > 10 |

More lines, main results first:

| Kd [1] [µM] | Kd [3] [µM] | Kd [4] [µM] | SMILES | IC50 [2] [µM] | IC50 [5] [µM] |
| --- | --- | --- | --- | --- | --- |
| < 0.001 | > 10 | > 10 | C[C@H](Oc1cc(-c2nn(C)c3c(C#CC4CCOCC4)cnc(N)c23)ccc1NS(=O)(=O)C(F)F)c1ccc(F)cc1 [Compound 58, (S)-N-(4-(4-amino-1-methyl-7-((tetrahydro-2H-pyran-4-yl)ethynyl)-1H-pyrazolo[4,3-c]pyridin-3-yl)-2-(1-(4-fluorophenyl)ethoxy)phenyl)-1,1-difluoromethanesulfonamide] | 0.01 to 1 | > 10 |
| < 0.001 | > 10 | > 10 | CC(C)N1CC(n2cc(-c3cnc(N)c4c(-c5ccc(NS(=O)(=O)C(F)F)c(O[C@@H](C)c6ccc(F)cc6)c5)nn(C)c34)cn2)C1 [Compound 76, (S)-N-(4-(4-amino-7-(1-(1-isopropylazetidin-3-yl)-1H-pyrazol-4-yl)-1-methyl-1H-pyrazolo[4,3-c]pyridin-3-yl)-2-(1-(4-fluorophenyl)ethoxy)phenyl)-1,1-difluoromethanesulfonamide] | < 0.01 | > 10 |
| < 0.001 | > 10 | > 10 | C[C@H](Oc1cc(-c2nn(C)c3c(-c4cnn(C5CN(CC(F)(F)F)C5)c4)cnc(N)c23)ccc1NS(=O)(=O)C(F)F)c1ccc(F)cc1 [Compound 77, (S)-N-(4-(4-amino-1-methyl-7-(1-(1-(2,2,2-trifluoroethyl)azetidin-3-yl)-1H-pyrazol-4-yl)-1H-pyrazolo[4,3-c]pyridin-3-yl)-2-(1-(4-fluorophenyl)ethoxy)phenyl)-1,1-difluoromethanesulfonamide] | < 0.01 | > 10 |
| < 0.001 | > 10 | > 10 | C[C@H](Oc1cc(-c2nn(C)c3c(-c4cnn(C5CC6(CNC6)C5)c4)cnc(N)c23)ccc1NS(=O)(=O)C(F)F)c1ccc(F)cc1 [Compound 78, (S)-N-(4-(7-(1-(2-azaspiro[3.3]heptan-6-yl)-1H-pyrazol-4-yl)-4-amino-1-methyl-1H-pyrazolo[4,3-c]pyridin-3-yl)-2-(1-(4-fluorophenyl)ethoxy)phenyl)-1,1-difluoromethanesulfonamide] | 0.01 to 1 | > 10 |
| < 0.001 | > 10 | > 10 | CNCCn1cc(-c2cnc(N)c3c(-c4ccc(NS(=O)(=O)C(F)F)c(O[C@@H](C)c5ccc(F)cc5)c4)nn(C)c23)cn1 [Compound 82, (S)-N-(4-(4-amino-1-methyl-7-(1-(2-(methylamino)ethyl)-1H-pyrazol-4-yl)-1H-pyrazolo[4,3-c]pyridin-3-yl)-2-(1-(4-fluorophenyl)ethoxy)phenyl)-1,1-difluoromethanesulfonamide] | 0.01 to 1 | > 10 |
| 0.001 to 0.1 | > 10 | > 10 | C[C@H](Oc1cc(-c2nn(C)c3c(-c4ccccc4Cl)cnc(N)c23)ccc1NS(=O)(=O)C(F)F)c1ccc(F)cc1 [Compound 85, (S)-N-(4-(4-amino-7-(2-chlorophenyl)-1-methyl-1H-pyrazolo[4,3-c]pyridin-3-yl)-2-(1-(4-fluorophenyl)ethoxy)phenyl)-1,1-difluoromethanesulfonamide] | 1 to 10 | > 10 |
| 0.001 to 0.1 | > 10 | > 10 | C[C@H](Oc1cc(-c2nn(C)c3c(-c4ccccc4)cnc(N)c23)ccc1NS(=O)(=O)C(F)F)c1ccc(F)cc1 [Compound 86, (S)-N-(4-(4-amino-1-methyl-7-phenyl-1H-pyrazolo[4,3-c]pyridin-3-yl)-2-(1-(4-fluorophenyl)ethoxy)phenyl)-1,1-difluoromethanesulfonamide] | 0.01 to 1 | > 10 |
| 0.001 to 0.1 | > 10 | > 10 | C[C@H](Oc1cc(-c2nn(C)c3c(-c4ccc(Cl)cc4)cnc(N)c23)ccc1NS(=O)(=O)C(F)F)c1ccc(F)cc1 [Compound 87, (S)-N-(4-(4-amino-7-(4-chlorophenyl)-1-methyl-1H-pyrazolo[4,3-c]pyridin-3-yl)-2-(1-(4-fluorophenyl)ethoxy)phenyl)-1,1-difluoromethanesulfonamide] | 1 to 10 | > 10 |
| < 0.001 | > 10 | > 10 | C[C@H](Oc1cc(-c2nn(C)c3c(-c4cnn(CC5CCCN5)c4)cnc(N)c23)ccc1NS(=O)(=O)C(F)F)c1ccc(F)cc1 (stereo partly drawn) [Compound 88, N-(4-(4-amino-1-methyl-7-(1-(pyrrolidin-2-ylmethyl)-1H-pyrazol-4-yl)-1H-pyrazolo[4,3-c]pyridin-3-yl)-2-((S)-1-(4-fluorophenyl)ethoxy)phenyl)-1,1-difluoromethanesulfonamide] | 0.01 to 1 | > 10 |
